Experimental data from patent publication US20200181284A1, “EPIGENETIC INHIBITORS FOR SENSITIZING HEMATOLOGIC OR OTHER MALIGNANCIES TO GLUCOCORTICOID THERAPY” (UNIVERSITY OF SOUTHERN CALIFORNIA, priority 2017, published 2020).

Assays:
NALM6 cells [1] = assay: Cell death assay (Presto Blue, 72 h) with dex plus inhibitor; format: cell-based, human
Experimental: Cells were plated in CellStar low evaporation lid 96-well round-bottom plate at a density of 100,000 cells/ml. Directly after plating, cells were treated in triplicate with serial dilutions of dexamethasone or vehicle control (0.1% ethanol). After 72 h, cell viability of each well was analyzed in duplicate using the Presto Blue Assay Reagent (Life Technologies). Fluorescence was measured and data were analyzed with Prism6 software.
(§1) FIGS. 40A, 40B, 40C, 40D-1, 40D-2, 40D-3, and 40D-4 show Aurora kinase B inhibitors sensitizing NALM6 cells to GC-induced cell death. As shown in FIGS. 40A and 40B, NALM6 cells were treated with the indicated dex concentration in addition to 0.75 μM ZM447439 (FIG. 40A), 16 nM AZD2811 (FIG. 40B), or equivalent volume of vehicle DMSO for 72 h, and cell survival was measured by a fluorescence metabolic assay. In each condition, the value measured with dex was normalized to the fluorescence value measured with ethanol. Percentage of survival is shown as the mean±SEM of 4 independent experiments and p-values for individual dex concentrations were calculated using a paired t-test. *p≤0.05, **p≤0.01, * * *p≤0.001. F-test comparing the two curves: p≤0.001. Insets show the EC50s that were calculated as the concentration at which half the cells remained alive, compare to vehicle controls. Error bars depict the SEM of 4 independent experiments and p-values were calculated to compare AURKB inhibitor treatment to DMSO using a paired t-test ** p≤0.01, * * *p≤0.001. […] The indicated proteins were then examined by immunoblot. As shown in FIGS. 40D-1, 40D-2, 40D-3, and 40D-4, NALM6 cells pre-treated with AZD2811 (16 nM) or DMSO for 24 h, were then treated for 8 h with 100 nM dex or ethanol. mRNA levels for the indicated GR target genes were measured by RT-qPCR and normalized to β-actin mRNA levels.
FIGS. 48A, 48B, 48C, 48D, 48E, and 48F show the effect of AURKB inhibitors on EHMT2 phosphorylation and dex-induced cell death. […] In each condition, the value measured with dex was normalized to the fluorescence value measured with ethanol. Percentage of survival is shown as the mean±SEM of 4 independent experiments and p-values for individual dex concentrations were calculated using a paired t-test. *p≤0.05, **p≤0.01, * * *p≤0.001. F-test comparing the two curves: p≤0.001. EC50s were calculated as the concentration at which half the cells remained alive, compare to vehicle controls. Error bars depict the SEM of 4 independent experiments and p-value was calculated to compare ZM treatment to DMSO using a paired t-test **p≤0.01, * * *p≤0.001. […] EC50s were calculated as the concentration at which half the cells remained alive, compare to vehicle controls. Error bars depict the SEM of 4 independent experiments and p-value was calculated to compare alisertib treatment to DMSO using a paired t-test. […] (E-F) RCH-ACV cells were treated with the indicated dex concentration in addition to 0.75 μM ZM447439 (FIG. 48E), 16 nM AZD2811 (FIG. 48F), or DMSO for 72 h, and cell survival was measured by a fluorescence metabolic assay. In each condition, the value measured with dex was normalized to the fluorescence value measured with ethanol. Percentage of survival is shown as the mean±SEM of 5 individual experiments and the p-value for each dex concentration was calculated using a paired t-test. *p≤0.05, **p≤0.01, * * *p≤0.001. F-test comparing the two curves: p≤0.001.
FIGS. 55A, 55B, and 55C show JIB-04 enhances GC-induced death of B-ALL cell line NALM6.

[2] = system: GR target genes in NALM6 cells; assay: RT-qPCR of GR target genes in NALM6 cells; format: cell-based, human; settings: NALM6, 16 nM AZD2811 24 h, then 100 nM dex 8 h
Experimental: RNA was isolated using TRIzol (Invitrogen) according to the manufacturer's instructions. Reverse transcription reaction was performed using Superscript III (ThermoFisher) according to specifications with 1 μg of total RNA as template. Quantitative PCR amplification of the resulting cDNA was performed on a Roche LightCycler 480 using SYBR green I master mix (Roche). mRNA levels were normalized to the level of b-actin mRNA.
as §1
FIGS. 54A, 54B, and 54C highlight the GR Target genes that require G9a and GLP as coactivators.

EHMT2 phosphorylation = assay: Phosphorylation of EHMT2 in NALM-6 cells (pan ph-T immunoprecipitation, EHMT2 immunoblot); format: cell-based, human; settings: NALM-6, 16 nM AZD2811, 24 h
Experimental: (§2) Cells were treated as indicated, and cell extracts were prepared in RIPA buffer ([…] Tris-HCl, pH 8, 150 mM NaCL, 1 mM EDTA, 1% NP-40, and 0.25% deoxycholate) supplemented with protease inhibitor tablets (Roche Molecular Biochemicals) and phosphatase inhibitors (1 mM NaF, 1 mM Na3VO4, and 1 mM β-glycerophosphate). Protein extracts were incubated overnight at 4° C. with shaking with 1 μg of antibodies against EHMT2 (Sigma G6919), EHMT1 (Millipore 09-078), or pan phospho-threonine (Millipore AB1607). Protein A/G plus agarose beads (Santa Cruz sc-2003) were added, and the mixture was incubated 2 h at 4° C. The immunoprecipitates were separated on SDS-PAGE. […]
FIGS. 48A, 48B, 48C, 48D, 48E, and 48F show the effect of AURKB inhibitors on EHMT2 phosphorylation and dex-induced cell death. […] In each condition, the value measured with dex was normalized to the fluorescence value measured with ethanol. Percentage of survival is shown as the mean±SEM of 4 independent experiments and p-values for individual dex concentrations were calculated using a paired t-test. *p≤0.05, **p≤0.01, * * *p≤0.001. […] EC50s were calculated as the concentration at which half the cells remained alive, compare to vehicle controls. Error bars depict the SEM of 4 independent experiments and p-value was calculated to compare ZM treatment to DMSO using a paired t-test **p≤0.01, * * *p≤0.001. […]

[3] = system: LAX7R and LAX56 primary human B-ALL cells; assay: Survival of primary B-ALL cells co-cultured with OP-9 feeder cells (Annexin V/7AAD); format: cell-based
Experimental: Primary ALL cells (LAX7R and LAX56) were established from mouse xenografts derived from patient samples (Adam et al., 2017; Hsieh et al., 2013). They were cultured in 24 well tissue-culture plates on irradiated OP-9 cells with growth medium containing MEM-α with 20% heat-inactivated fetal bovine serum, and 100 IU/ml penicillin and 100 μg/ml streptomycin. On day 3 and day 5 after the addition of drugs, ALL cells were collected, and apoptosis was assessed using PE Annexin V Apoptosis Detection Kit with 7-AAD.
As shown FIGS. 41A-1, 41A-2, 41B-1, and 41B-2, LAX7R (FIGS. 41A-1 and 41A-2) or LAX56 (FIGS. 41B-1 and 41B-2) primary human B-ALL cells were co-cultured with OP-9 feeder cells for 3 days (left) or 5 days (right) in the presence of the indicated drugs, and cell survival was determined by staining with Annexin/7AAD. p-value was calculated using a paired t-test, and different symbols were used to indicate p-values between different groups.+indicates statistical significance (+p≤0.05, ++p≤0.01 and + + + p≤0.001) between Dexamethasone or AZD2811 treated group and DMSO control group; # indicates statistical significance (#p≤0.05, ##p≤0.01 and # # # p≤0.001) between AZD2811+Dexamethasone combination group and AZD2811 group; * indicates statistical difference (*p≤0.05, **p≤0.01, * * *p≤0.001) between combination group and respective Dexamethasone treated groups. Values shown are mean and SD for 3 biological replicates, which are representative of 3 independent experiments.

NALM6 cells [4] = assay: Immunoblot of apoptosis markers (cleaved caspase 3, caspase 7, PARP1) in NALM6 cells; format: cell-based, human; settings: 16 nM AZD2811 pretreatment 24 h, then 100 nM dex 24 h
Experimental: as §2
FIGS. 40A, 40B, 40C, 40D-1, 40D-2, 40D-3, and 40D-4 show Aurora kinase B inhibitors sensitizing NALM6 cells to GC-induced cell death. As shown in FIGS. 40A and 40B, NALM6 cells were treated with the indicated dex concentration in addition to 0.75 μM ZM447439 (FIG. 40A), 16 nM AZD2811 (FIG. 40B), or equivalent volume of vehicle DMSO for 72 h, and cell survival was measured by a fluorescence metabolic assay. In each condition, the value measured with dex was normalized to the fluorescence value measured with ethanol. Percentage of survival is shown as the mean±SEM of 4 independent experiments and p-values for individual dex concentrations were calculated using a paired t-test. *p≤0.05, **p≤0.01, * * *p≤0.001. […]

G9a methylation = G9a methylation level in NALM6 cells treated with KDM inhibitors; format: cell-based, human
Text: There are two distinct families of KDM with distinct catalytic mechanisms (FIG. 50B). We tested one inhibitor for each family: OG-L002 inhibits the two members of the LSD family of KDM, and JIB-04 inhibits several members of the large JmjC family of KDM, including members of the KDM2, KDM3, and KDM4 subfamilies. We propose that there is an equilibrium between the enzymes that methylate G9a and GLP (in this case they methylate themselves) and the KDM enzymes to maintain a moderate level of G9a/GLP methylation (FIGS. 50C-1, 50C-2), and that inhibition of the KDMs that normally demethylate G9a and GLP (currently unknown) will increase the level of G9a/GLP methylation and thereby enhance the coactivator activity of G9a/GLP, the GC activation of the cell death genes, and GC-induced cell death in B-ALL cells. Thus, as a first step to identify the G9a/GLP-specific demethylases, we treated NALM6 cells with the two inhibitors named above. OG-L002 had no effect on the level of G9a methylation, but JIB-04 increased the level of G9a methylation in NALM6 cells (FIG. 50D).

Row | Structure (SMILES) | dex-induced cell death (NALM6 cells [1]; NALM6, 16 nM AZD2811, 72 h) | dex-induced expression of dex-effector genes that utilize EHMT2, EHMT1 and CBX3 [2] | phosphorylation of EHMT2 (EHMT2 phosphorylation) | cell survival compared with the vehicle-treated control ([3]; 16 nM AZD2811 alone, 3 or 5 days) | cell survival ([3]; 16 nM AZD2811 in combination with 0.1 nM dex, 3 or 5 days) | dex sensitivity of the two dex-resistant primary B-ALL lines ([3]; 16 nM AZD2811 with dex) | cleavage of apoptotic markers in dex-treated NALM6 (NALM6 cells [4]) | GC-induced death of NALM6 cells (NALM6 cells [1]; 72 hours with various dex concentrations plus KDM inhibitor) | level of G9a methylation (G9a methylation)
1 | CCN(CCO)CCCOc1ccc2c(Nc3cc(CC(=O)Nc4cccc(F)c4)[nH]n3)ncnc2c1 [AZD2811] | enhanced | enhanced | decreased | 70-80% | 10-40% | dramatically enhanced | increased | – | –
2 | N[C@H]1C[C@@H]1c1ccc(-c2cccc(O)c2)cc1 [OG-L002, 3-[4-[(1R,2S)-2-aminocyclopropyl]phenyl]phenol] | – | – | – | – | – | – | – | no effect | no effect
